# Publication PMC6199744, “Development of Chemical Proteomics for the Folateome and Analysis of the Kinetoplastid Folateome” (ACS Infectious Diseases, 2018)
# Values joined by “and” are separate entries in the source; they are usually repeats but may differ in a detail not shown here. Equal values may be shown once. Read-outs that look alike come from different tables or passages of the source.
# Columns and labels:
# Assay type in all cases: binding
# [1] = molecular target: T1, HeLa cell extract proteins (Homo sapiens, UniProt P09972)
# T1 construct: endogenous in cells; host or cells: HeLa cell extract
# T1 sequence (P09972 1-364): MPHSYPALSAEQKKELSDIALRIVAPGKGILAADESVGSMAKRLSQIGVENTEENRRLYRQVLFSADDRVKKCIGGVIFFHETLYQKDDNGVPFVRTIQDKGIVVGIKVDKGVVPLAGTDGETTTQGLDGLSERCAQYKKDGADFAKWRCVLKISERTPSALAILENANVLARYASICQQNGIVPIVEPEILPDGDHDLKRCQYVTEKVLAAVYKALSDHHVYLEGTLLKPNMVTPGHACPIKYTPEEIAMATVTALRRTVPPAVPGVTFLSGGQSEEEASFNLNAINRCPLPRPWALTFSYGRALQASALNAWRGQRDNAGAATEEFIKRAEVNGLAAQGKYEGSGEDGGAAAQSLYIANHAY
# [2] = molecular target: T2, HeLa cell extract proteins (Homo sapiens, UniProt P61604)
# T2 construct: endogenous in cells; host or cells: HeLa cell extract
# [3] = molecular target: T3, HeLa cell extract proteins (Homo sapiens, UniProt P62333)
# T3 construct: endogenous in cells; host or cells: HeLa cell extract
# [4] = molecular target: T4, HeLa cell extract proteins (Homo sapiens, UniProt P40227)
# T4 construct: endogenous in cells; host or cells: HeLa cell extract
# [5] = molecular target: T5, HeLa cell extract proteins (Homo sapiens, UniProt Q9UI12)
# T5 construct: endogenous in cells; host or cells: HeLa cell extract
# [6] = molecular target: T6, HeLa cell extract proteins (Homo sapiens, UniProt P81605)
# T6 construct: endogenous in cells; host or cells: HeLa cell extract
# T6 sequence (P81605 20-110): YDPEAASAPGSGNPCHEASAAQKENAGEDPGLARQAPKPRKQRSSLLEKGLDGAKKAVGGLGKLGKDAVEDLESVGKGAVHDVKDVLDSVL
# [7] = molecular target: T7, HeLa cell extract proteins (Homo sapiens, UniProt P61019)
# T7 construct: endogenous in cells; host or cells: HeLa cell extract
# [8] = molecular target: T8, HeLa cell extract proteins (Homo sapiens, UniProt Q15293)
# T8 construct: endogenous in cells; host or cells: HeLa cell extract
# T8 sequence (Q15293 30-331): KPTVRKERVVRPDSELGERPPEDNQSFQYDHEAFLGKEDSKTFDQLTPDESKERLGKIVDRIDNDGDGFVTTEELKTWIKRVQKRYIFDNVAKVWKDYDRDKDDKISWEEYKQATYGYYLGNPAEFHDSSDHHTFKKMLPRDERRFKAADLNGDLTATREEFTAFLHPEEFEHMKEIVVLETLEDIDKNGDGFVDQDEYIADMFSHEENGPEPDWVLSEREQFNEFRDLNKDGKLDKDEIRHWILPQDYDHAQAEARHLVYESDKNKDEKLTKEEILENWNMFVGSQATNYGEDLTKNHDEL
# [9] = molecular target: T9, HeLa cell extract proteins (Homo sapiens, UniProt O43592)
# T9 construct: endogenous in cells; host or cells: HeLa cell extract
# T9 sequence (O43592 1-962): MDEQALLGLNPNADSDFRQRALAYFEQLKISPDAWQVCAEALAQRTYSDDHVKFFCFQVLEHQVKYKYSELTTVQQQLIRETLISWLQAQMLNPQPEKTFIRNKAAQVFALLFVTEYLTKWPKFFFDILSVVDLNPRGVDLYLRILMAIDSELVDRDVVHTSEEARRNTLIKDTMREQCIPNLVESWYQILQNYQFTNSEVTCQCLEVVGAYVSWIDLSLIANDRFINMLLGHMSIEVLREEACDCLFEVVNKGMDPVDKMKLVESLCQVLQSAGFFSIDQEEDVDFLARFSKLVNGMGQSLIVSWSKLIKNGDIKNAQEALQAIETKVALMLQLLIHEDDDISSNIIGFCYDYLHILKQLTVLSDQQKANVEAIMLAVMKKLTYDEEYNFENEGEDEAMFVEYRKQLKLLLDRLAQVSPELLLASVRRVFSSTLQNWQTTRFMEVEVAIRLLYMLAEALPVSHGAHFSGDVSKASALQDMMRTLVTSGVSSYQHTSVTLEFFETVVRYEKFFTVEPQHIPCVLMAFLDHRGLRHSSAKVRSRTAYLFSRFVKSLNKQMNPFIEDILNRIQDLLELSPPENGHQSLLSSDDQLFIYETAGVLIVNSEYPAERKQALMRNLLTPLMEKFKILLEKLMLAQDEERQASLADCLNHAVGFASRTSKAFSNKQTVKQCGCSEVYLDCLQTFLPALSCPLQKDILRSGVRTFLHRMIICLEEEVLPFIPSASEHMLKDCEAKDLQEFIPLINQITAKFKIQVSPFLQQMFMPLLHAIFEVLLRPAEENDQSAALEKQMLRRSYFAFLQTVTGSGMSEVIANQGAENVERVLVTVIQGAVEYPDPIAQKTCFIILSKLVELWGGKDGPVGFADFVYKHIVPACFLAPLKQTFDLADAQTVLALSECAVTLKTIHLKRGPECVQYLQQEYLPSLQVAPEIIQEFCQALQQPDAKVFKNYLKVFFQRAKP
# [10] = molecular target: T10, HeLa cell extract proteins (Homo sapiens, UniProt Q99570)
# T10 construct: endogenous in cells; host or cells: HeLa cell extract
# [11] = molecular target: T11, HeLa cell extract proteins (Homo sapiens, UniProt P26038)
# T11 construct: endogenous in cells; host or cells: HeLa cell extract
# [12] = molecular target: T12, HeLa cell extract proteins (Homo sapiens, UniProt P00338)
# T12 construct: endogenous in cells; host or cells: HeLa cell extract
# [13] = molecular target: T13, HeLa cell extract proteins (Homo sapiens, UniProt P07814)
# T13 construct: endogenous in cells; host or cells: HeLa cell extract
# [14] = test system: HeLa cell extract proteins
# [15] = HeLa, captured protein LOC442497
# [16] = HeLa, protein ABCB7 (ISOFORM 2 OF ATP-BINDING CASSETTE SUB-FAMILY B MEMBER 7, MIT[…])
# [17] = HeLa, protein ASAH1 (N-ACYLSPHINGOSINE AMIDOHYDROLASE (ACID CERAMIDASE) 1 ISOFORM B)
# [18] = HeLa, protein MYL6 (ISOFORM SMOOTH MUSCLE OF MYOSIN LIGHT POLYPEPTIDE 6)
# [19] = HeLa, protein PSMA1 (ISOFORM LONG OF […] ALPHA TYPE 1)
# [20] = HeLa, protein PSME1 ([…] SUBUNIT 1 ISOFORM 2)
# T2 sequence (P61604 whole entry): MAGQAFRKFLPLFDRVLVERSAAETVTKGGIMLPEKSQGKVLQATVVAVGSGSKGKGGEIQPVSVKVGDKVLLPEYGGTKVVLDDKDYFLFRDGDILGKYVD
# T4 sequence (P40227 whole entry): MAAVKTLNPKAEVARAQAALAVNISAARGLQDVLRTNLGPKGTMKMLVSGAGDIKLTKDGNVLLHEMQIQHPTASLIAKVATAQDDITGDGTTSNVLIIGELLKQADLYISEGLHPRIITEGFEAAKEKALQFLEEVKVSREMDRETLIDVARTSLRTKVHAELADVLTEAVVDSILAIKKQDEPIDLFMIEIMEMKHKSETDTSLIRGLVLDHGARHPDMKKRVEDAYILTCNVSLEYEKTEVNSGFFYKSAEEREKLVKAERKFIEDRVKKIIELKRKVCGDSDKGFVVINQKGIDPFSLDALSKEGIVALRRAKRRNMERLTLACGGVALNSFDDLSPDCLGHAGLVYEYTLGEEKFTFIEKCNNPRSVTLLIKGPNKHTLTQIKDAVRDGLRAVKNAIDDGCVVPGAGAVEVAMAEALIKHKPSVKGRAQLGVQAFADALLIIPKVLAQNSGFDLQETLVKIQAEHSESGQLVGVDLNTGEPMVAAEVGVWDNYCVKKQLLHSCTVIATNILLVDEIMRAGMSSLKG
# T3 sequence (P62333 whole entry): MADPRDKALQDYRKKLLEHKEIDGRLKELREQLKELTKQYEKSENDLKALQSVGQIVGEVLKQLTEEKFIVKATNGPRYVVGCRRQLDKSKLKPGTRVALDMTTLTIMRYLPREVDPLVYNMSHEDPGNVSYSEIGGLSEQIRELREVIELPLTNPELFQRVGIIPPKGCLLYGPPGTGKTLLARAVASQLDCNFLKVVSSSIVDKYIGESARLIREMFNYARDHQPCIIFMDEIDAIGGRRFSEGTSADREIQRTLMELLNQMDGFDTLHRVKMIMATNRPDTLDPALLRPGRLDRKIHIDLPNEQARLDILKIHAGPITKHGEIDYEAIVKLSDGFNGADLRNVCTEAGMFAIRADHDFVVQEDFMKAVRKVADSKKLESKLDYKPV
# T7 sequence (P61019 whole entry): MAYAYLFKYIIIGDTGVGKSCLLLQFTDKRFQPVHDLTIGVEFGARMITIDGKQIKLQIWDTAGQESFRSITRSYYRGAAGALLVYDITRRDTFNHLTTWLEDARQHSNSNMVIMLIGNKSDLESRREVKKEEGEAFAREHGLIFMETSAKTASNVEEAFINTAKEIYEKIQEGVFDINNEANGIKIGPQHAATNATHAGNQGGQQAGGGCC
# T5 sequence (Q9UI12 whole entry): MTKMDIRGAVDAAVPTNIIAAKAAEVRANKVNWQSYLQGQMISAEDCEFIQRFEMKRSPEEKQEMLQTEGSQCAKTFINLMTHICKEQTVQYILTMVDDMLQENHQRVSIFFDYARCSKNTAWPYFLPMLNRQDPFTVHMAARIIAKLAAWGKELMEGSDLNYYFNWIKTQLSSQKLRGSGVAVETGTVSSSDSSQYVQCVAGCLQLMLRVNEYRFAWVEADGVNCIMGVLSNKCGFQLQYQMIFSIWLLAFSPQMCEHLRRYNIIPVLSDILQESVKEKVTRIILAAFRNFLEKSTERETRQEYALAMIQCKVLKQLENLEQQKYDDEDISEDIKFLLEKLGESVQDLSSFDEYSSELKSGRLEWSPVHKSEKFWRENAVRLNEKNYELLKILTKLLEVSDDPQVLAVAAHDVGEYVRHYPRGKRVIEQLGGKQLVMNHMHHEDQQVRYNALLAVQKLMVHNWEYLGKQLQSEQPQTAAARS
# T10 sequence (Q99570 whole entry): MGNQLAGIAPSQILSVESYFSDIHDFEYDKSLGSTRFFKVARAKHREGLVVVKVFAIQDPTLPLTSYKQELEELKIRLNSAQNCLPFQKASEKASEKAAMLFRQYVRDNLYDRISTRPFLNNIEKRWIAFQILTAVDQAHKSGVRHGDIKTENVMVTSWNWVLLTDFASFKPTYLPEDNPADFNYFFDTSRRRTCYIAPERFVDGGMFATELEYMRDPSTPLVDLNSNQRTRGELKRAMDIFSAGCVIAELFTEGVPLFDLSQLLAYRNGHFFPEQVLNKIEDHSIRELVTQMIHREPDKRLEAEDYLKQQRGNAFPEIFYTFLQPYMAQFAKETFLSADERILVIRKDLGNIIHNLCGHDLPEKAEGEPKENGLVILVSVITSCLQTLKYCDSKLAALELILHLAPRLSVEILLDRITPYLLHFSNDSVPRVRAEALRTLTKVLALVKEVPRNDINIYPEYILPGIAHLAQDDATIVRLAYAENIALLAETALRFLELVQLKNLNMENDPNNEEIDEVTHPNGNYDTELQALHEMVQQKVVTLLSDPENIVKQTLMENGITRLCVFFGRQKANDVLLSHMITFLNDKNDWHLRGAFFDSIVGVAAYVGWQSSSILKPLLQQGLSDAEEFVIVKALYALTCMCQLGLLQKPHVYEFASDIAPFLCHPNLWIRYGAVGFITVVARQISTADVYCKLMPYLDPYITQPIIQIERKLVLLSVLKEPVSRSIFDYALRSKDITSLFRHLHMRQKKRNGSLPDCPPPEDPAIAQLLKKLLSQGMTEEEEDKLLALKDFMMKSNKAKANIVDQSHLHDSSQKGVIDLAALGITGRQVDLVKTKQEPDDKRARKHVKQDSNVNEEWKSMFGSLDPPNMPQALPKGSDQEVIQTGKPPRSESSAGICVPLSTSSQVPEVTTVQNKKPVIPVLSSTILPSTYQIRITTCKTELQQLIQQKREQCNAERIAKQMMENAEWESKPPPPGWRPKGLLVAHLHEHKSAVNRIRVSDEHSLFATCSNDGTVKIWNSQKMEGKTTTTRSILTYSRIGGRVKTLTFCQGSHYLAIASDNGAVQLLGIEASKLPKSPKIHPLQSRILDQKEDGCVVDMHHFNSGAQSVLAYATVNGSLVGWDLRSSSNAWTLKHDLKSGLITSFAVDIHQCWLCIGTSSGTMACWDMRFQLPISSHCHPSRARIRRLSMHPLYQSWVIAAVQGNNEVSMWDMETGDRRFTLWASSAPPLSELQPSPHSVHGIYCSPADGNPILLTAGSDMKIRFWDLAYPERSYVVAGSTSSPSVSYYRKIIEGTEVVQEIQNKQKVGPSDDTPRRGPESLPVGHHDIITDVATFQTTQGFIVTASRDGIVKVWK
# T11 sequence (P26038 whole entry): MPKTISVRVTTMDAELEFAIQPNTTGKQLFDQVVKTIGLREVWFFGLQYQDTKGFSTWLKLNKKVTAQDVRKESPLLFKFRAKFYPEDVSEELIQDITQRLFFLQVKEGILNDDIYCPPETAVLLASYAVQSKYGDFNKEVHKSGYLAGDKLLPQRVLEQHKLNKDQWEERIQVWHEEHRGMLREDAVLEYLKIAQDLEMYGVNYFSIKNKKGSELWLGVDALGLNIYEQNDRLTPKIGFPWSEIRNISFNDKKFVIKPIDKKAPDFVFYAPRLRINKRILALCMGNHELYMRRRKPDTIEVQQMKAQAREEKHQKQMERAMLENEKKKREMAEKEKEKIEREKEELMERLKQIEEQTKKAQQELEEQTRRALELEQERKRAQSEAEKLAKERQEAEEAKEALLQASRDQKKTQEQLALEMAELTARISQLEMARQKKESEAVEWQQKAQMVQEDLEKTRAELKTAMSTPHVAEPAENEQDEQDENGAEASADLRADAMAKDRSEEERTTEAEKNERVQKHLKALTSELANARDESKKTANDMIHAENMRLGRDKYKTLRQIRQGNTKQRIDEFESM
compound,measurement,setting,value
Nc1nc2cccc(-c3ccccc3)c2n1Cc1ccc(Cl)c(Cl)c1 [compound 3],fold changes relative to vehicle control,"[1]; HeLa, protein ALDOC (FRUCTOSE-BI[…] C.)",1.23 fold
same,fold changes relative to vehicle control,"[2]; protein HSPE1, HeLa",0.85
same,fold changes relative to vehicle control,"[3]; protein PSMC6, HeLa",1.2
same,fold changes relative to vehicle control,"[4]; protein CCT6A, HeLa",1.04
same,fold changes relative to vehicle control,"[5]; HeLa, protein ATP6V1H",1.17
same,fold changes relative to vehicle control,"[6]; protein DCD, HeLa",1.26
same,fold changes relative to vehicle control,"[7]; captured protein RAB2A, HeLa",0.83
same,fold changes relative to vehicle control,"[8]; captured protein RCN1, HeLa",0.89
same,fold changes relative to vehicle control,"[9]; HeLa, protein XPOT",1.08
same,fold changes relative to vehicle control,"[10]; captured protein PIK3R4, HeLa",0.95
same,fold changes relative to vehicle control,"[11]; protein MSN, HeLa",0.77
same,fold changes relative to vehicle control,"[12]; HeLa, protein LDHA (ISOFORM 1 OF L-LACTATE DEH[…] CHAIN.)",0.92 fold
same,fold changes relative to vehicle control,"[13]; protein EPRS, HeLa",1.13
same,fold changes relative to vehicle control,[14],0.88 fold and 1 fold
same,fold changes relative to vehicle control,"[14]; HeLa, protein A8MV93_HUMAN (SIMILAR TO CYTOCHROME C.)",1.12 fold
same,fold changes relative to vehicle control,"[14]; HeLa, protein CTNNA1 (ISOFORM 2 OF CATENIN ALPHA-1.)",2.07 fold
same,fold changes relative to vehicle control,"[14]; HeLa, protein LOC646960",1.08
same,fold changes relative to vehicle control,"[14]; HeLa, protein LOC654188 (SIMILAR TO PEPT[…] A-LIKE.)",0.91 fold
same,fold changes relative to vehicle control,"[14]; protein EIF1AP1, HeLa",0.97
same,fold changes relative to vehicle control,"[14]; protein LOC442497, HeLa",1.03
same,fold changes relative to vehicle control,"[14]; protein RPLP0-LIKE, HeLa",1.04
"Nc1nc2[nH]cc(CCc3ccc(C(=O)N[C@@H](CCC(=O)O)C(=O)O)cc3)c2c(=O)[nH]1 [PTX, pemetrexed]",fold changes relative to vehicle control,[1],1.04
same,fold changes relative to vehicle control,[2],1.42
same,fold changes relative to vehicle control,[3],0.92
same,fold changes relative to vehicle control,[4],1.11
same,fold changes relative to vehicle control,[5],0.99
same,fold changes relative to vehicle control,[6],1.53
same,fold changes relative to vehicle control,[7],0.93
same,fold changes relative to vehicle control,[8],1.02
same,fold changes relative to vehicle control,[9],0.84
same,fold changes relative to vehicle control,[10],1.08
same,fold changes relative to vehicle control,[11],0.97
same,fold changes relative to vehicle control,[12],1.15
same,fold changes relative to vehicle control,[13],1.06
same,fold changes relative to vehicle control,"[14]; HeLa, captured protein EIF1AP1",0.95
same,fold changes relative to vehicle control,[14]; [15],1.08
same,fold changes relative to vehicle control,[14]; [16],1.19
same,fold changes relative to vehicle control,[14]; [17],1.19
same,fold changes relative to vehicle control,"[14]; HeLa, protein GTPBP3 (ISOFORM 2 OF TRNA MO[…] GTPBP3, MIT[…])",0.49
same,fold changes relative to vehicle control,"[14]; HeLa, protein LOC654188",1.12
same,fold changes relative to vehicle control,[14]; [18],1.4
same,fold changes relative to vehicle control,"[14]; HeLa, protein NME1-NME2",1.08
same,fold changes relative to vehicle control,[14]; [19],1.09
same,fold changes relative to vehicle control,[14]; [20],1
same,fold changes relative to vehicle control,"[14]; HeLa, protein RPLP0-LIKE",0.92
same,fold changes relative to vehicle control,"[14]; protein HIST2H2BA, HeLa",0.94
same,fold changes relative to vehicle control,"[14]; protein LOC646960, HeLa",0.95
"Nc1nc2c(c(=O)[nH]1)N(C=O)C(CNc1ccc(C(=O)N[C@@H](CCC(=O)O)C(=O)O)cc1)CN2 (stereo partly shown) [LEU, leucovorin]",fold changes relative to vehicle control,"[1]; HeLa, protein ALDOC",0.9
same,fold changes relative to vehicle control,"[2]; HeLa, protein HSPE1",1.16
same,fold changes relative to vehicle control,"[3]; protein PSMC6, HeLa",0.84
same,fold changes relative to vehicle control,"[4]; HeLa, protein CCT6A",1.01
same,fold changes relative to vehicle control,"[5]; HeLa, protein ATP6V1H",1.04
same,fold changes relative to vehicle control,"[6]; protein DCD, HeLa",0.78
same,fold changes relative to vehicle control,"[7]; HeLa, protein RAB2A",0.85
same,fold changes relative to vehicle control,"[8]; HeLa, protein RCN1",0.91
same,fold changes relative to vehicle control,"[9]; HeLa, protein XPOT",0.94
same,fold changes relative to vehicle control,"[10]; HeLa, protein PIK3R4",0.97
same,fold changes relative to vehicle control,"[11]; HeLa, protein MSN",0.93
same,fold changes relative to vehicle control,"[12]; HeLa, protein LDHA",1.07
same,fold changes relative to vehicle control,"[13]; HeLa, protein EPRS (BI[…]-TRNA SYNTHETASE)",1.11
same,fold changes relative to vehicle control,"[14]; HeLa, captured protein EIF1AP1",0.99
same,fold changes relative to vehicle control,[14]; [15],1.06
same,fold changes relative to vehicle control,[14]; [16],1.18
same,fold changes relative to vehicle control,[14]; [17],1.17
same,fold changes relative to vehicle control,"[14]; HeLa, protein GTPBP3 (ISOFORM 2 OF TRNA MODIFICATION GTPASE GTPBP3, MITOCHONDRIAL PRECURSOR)",0.27
same,fold changes relative to vehicle control,"[14]; HeLa, protein LOC654188",0.98
same,fold changes relative to vehicle control,[14]; [18],1.06
same,fold changes relative to vehicle control,"[14]; HeLa, protein NME1-NME2",0.99
same,fold changes relative to vehicle control,[14]; [19],1.18
same,fold changes relative to vehicle control,[14]; [20],1.03
same,fold changes relative to vehicle control,"[14]; HeLa, protein RPLP0-LIKE",0.86
same,fold changes relative to vehicle control,"[14]; protein HIST2H2BA, HeLa",0.92
same,fold changes relative to vehicle control,"[14]; protein LOC646960, HeLa",0.84
